Source: patent US9447092B2, “Pharmaceutically active compounds” (CANCER RESEARCH TECHNOLOGY LIMITED, priority 2012, dated 2016)
Several values for one entry are separate records, joined by “and”; a condition that tells them apart may be missing. Equal values may be shown once. Read-outs that look alike come from different tables or passages of the source.

Experiments:
[1] = target: CYP2A6 (Homo sapiens (Human), UniProt P11509); experiment: Inhibition of CYP isozymes in human liver microsomes, CYP2A6; conditions: read-out: Estimated IC50 CYP2A6, probe Coumarin
Chain of CYP2A6 (P11509 whole entry): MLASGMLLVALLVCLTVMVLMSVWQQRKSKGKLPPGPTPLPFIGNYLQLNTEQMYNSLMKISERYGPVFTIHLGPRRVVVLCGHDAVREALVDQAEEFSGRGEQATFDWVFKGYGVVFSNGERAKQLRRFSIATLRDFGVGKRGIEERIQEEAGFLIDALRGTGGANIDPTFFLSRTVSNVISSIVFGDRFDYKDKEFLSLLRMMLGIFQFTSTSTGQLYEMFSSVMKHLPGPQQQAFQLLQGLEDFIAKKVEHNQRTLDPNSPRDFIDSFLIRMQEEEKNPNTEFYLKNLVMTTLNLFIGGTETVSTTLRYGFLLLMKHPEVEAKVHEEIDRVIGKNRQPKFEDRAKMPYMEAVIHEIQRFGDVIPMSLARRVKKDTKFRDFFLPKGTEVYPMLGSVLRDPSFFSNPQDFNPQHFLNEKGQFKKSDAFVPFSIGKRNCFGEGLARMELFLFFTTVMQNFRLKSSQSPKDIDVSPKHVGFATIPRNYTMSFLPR

[2] = target: CYP3A4 (Homo sapiens (Human), UniProt P08684); experiment: Inhibition of CYP isozymes in human liver microsomes, CYP3A4; conditions: read-out: Estimated IC50 CYP3A4, probe Midazolam
Chain of CYP3A4 (P08684 whole entry): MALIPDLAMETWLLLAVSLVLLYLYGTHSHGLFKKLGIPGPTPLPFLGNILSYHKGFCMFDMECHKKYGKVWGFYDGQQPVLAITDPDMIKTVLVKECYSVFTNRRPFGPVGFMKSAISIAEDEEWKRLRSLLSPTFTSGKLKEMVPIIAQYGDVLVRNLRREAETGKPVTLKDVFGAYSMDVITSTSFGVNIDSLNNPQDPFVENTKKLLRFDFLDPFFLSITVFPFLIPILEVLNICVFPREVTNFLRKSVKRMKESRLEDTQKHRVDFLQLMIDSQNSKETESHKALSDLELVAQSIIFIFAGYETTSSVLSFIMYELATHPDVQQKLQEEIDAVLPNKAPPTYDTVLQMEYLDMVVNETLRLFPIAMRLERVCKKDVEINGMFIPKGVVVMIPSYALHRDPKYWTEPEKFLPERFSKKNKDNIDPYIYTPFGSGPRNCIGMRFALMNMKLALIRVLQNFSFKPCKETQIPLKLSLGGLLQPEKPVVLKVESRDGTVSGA

[3] = Human liver microsomal stability; type: in vitro ADME; conditions: human liver microsomes, after a 30 min incubation
Protocol: (§1) Compounds (10 μM) were incubated with mixed gender pooled human liver microsomes (1 mg·mL^−1) protein in the presence of NADPH (1 mM), UDPGA (2.5 mM) and MgCl2 (3 mM) in phosphate buffered saline (10 mM) at 37° C. Incubations were conducted for 0 and 30 minutes. Control incubations were generated by the omission of NADPH and UDPGA from the incubation reaction. The percentage compound remaining was determined after analysis by LCMS.

[4] = target: CYP2C19 (Homo sapiens (Human), UniProt P33261); experiment: Inhibition of CYP isozymes in human liver microsomes, CYP2C19
Chain of CYP2C19 (P33261 whole entry): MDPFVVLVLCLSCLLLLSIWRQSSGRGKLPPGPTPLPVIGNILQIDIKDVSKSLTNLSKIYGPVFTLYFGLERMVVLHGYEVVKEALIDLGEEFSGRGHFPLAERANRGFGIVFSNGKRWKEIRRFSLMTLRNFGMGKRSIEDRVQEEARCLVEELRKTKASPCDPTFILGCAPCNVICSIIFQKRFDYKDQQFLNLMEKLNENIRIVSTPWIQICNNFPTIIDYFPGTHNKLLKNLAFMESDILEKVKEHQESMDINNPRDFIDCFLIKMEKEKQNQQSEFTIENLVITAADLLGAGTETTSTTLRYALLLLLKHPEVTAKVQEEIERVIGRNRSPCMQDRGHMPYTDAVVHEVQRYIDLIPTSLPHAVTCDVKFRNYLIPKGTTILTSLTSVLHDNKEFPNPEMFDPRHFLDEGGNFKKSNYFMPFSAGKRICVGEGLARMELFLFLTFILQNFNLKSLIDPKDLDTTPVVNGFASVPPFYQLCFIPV

[5] = Mouse liver microsomal stability; type: in vitro ADME; conditions: mouse liver microsomes, after a 30 min incubation
Protocol: as §1, with “male CD1 mouse” for “mixed gender pooled human”

[6] = target: T1, hERG (Homo sapiens (Human), UniProt Q12809); experiment: hERG inhibition (cell-based electrophysiology, hERG tail current)
T1 sequence (Q12809 whole entry): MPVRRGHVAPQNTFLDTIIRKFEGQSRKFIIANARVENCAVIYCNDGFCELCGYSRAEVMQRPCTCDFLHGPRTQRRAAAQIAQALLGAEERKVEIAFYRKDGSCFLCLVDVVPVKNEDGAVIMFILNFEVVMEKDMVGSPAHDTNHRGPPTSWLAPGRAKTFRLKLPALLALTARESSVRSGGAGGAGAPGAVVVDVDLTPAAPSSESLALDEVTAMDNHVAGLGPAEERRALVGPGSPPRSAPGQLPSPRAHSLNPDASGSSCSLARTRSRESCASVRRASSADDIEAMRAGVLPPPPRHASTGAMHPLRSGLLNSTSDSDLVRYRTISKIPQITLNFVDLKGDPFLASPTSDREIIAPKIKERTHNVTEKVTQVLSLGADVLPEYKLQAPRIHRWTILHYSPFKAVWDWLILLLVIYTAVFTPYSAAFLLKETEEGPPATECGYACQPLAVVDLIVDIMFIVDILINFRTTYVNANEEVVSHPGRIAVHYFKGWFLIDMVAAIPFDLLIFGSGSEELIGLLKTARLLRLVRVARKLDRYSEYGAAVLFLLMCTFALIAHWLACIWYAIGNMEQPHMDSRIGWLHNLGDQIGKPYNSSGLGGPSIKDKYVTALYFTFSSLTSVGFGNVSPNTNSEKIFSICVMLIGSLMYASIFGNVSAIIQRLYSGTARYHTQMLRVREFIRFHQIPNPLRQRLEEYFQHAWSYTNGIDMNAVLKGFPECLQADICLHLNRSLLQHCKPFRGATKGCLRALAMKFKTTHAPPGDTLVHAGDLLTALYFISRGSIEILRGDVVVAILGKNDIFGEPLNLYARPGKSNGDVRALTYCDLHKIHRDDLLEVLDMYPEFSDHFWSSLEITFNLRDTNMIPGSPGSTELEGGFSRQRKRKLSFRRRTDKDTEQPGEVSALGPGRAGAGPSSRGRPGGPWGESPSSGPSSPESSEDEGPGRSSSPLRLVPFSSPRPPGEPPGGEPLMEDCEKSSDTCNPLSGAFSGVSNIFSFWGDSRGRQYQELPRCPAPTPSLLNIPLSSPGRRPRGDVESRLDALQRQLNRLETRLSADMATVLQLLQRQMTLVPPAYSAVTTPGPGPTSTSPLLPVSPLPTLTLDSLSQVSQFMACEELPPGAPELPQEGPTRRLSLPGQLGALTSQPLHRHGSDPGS

[7] = target: FLT3 (Homo sapiens (Human), UniProt P36888); experiment: KINOMEScan FLT3; type: binding; conditions: 1 μM primary screening
Protocol: (§2) Kinase selectivity profiling: Kinase profiling using the KINOMEScan™ technology and Kd determinations were performed by KINOMEscan, a Division of DiscoveRx Corporation, San Diego, Calif., USA; www.kinomescan.com.

[8] = target: FLT3-ITD (Homo sapiens, UniProt P36888); experiment: KINOMEScan FLT3-ITD; type: binding; conditions: 1 μM primary screening
Protocol: as §2

[9] = target: FLT3(D835Y) (Homo sapiens (Human), UniProt P36888, D835Y); experiment: KINOMEScan FLT3(D835Y); type: binding; conditions: 1 μM primary screening
Protocol: as §2

[10] = system: 442-kinase panel (386 non-mutant kinases); experiment: KINOMEScan kinase selectivity profiling, 442-kinase panel; type: binding; conditions: 1 μM; >90% competition
Protocol: as §2

[11] = system: histone H-3 phosphorylation at S10; experiment: 4-day PK/PD study: histone H-3 phosphorylation in MV4-11 xenografts; type: in vivo, mouse; conditions: 50 and 100 mg/kg oral twice daily, 4 days
Protocol: (§3) Tumour samples were obtained 2 h after the final dose. Total histone H3, total Stat5 and GAPDH were used as loading controls.

[12] = system: HCT116 human colon carcinoma; experiment: Cell viability assay, HCT116; type: cell-based; conditions: HCT-116
[13] = target: T1, hERG
[14] = system: MV4-11 human tumour xenografts; experiment: Human tumour xenograft efficacy study (MV4-11); type: in vivo
Text: Brit J Cancer 102: 1555-1577, 2010.

[15] = system: phosphorylation of STAT5 at Y694; experiment: 4-day PK/PD study: STAT5 phosphorylation in MV4-11 xenografts; type: in vivo, mouse; conditions: 50 and 100 mg/kg oral twice daily, 4 days
Protocol: as §3

[16] = In vivo full PK in mouse
[17] = Log D measurement; type: physicochemical; conditions: pH 7.4, experimentally determined value
Protocol: Physicochemical properties: Log D and pKa measurements were performed by Pharmorphix® Solid State Services, Member of the Sigma-Aldrich Group, Cambridge, UK.

[18] = target: Aurora-B (Homo sapiens (Human), UniProt Q96GD4); experiment: KINOMEScan Aurora-B; type: binding; conditions: read-out: % control Aurora-B
Chain of Aurora-B (Q96GD4 whole entry): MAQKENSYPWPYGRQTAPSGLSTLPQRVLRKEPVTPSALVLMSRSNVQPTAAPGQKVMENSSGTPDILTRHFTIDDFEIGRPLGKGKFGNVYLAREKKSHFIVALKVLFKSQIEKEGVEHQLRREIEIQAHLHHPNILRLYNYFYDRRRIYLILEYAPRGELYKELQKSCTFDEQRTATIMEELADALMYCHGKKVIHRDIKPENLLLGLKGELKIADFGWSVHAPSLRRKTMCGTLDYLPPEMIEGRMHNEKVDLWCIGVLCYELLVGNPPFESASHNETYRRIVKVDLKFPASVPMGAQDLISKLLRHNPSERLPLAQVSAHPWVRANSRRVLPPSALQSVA
Protocol: as §2

[19] = target: FLT3(D835H) (Homo sapiens (Human), UniProt P36888, D835H); experiment: KINOMEScan FLT3(D835H); type: binding; conditions: 1 μM primary screening
Protocol: as §2

[20] = system: SW620 human colon carcinoma xenograft; conditions: literature (ref 26); cited from earlier work
[21] = target: CYP2C9 (Homo sapiens (Human), UniProt P11712); experiment: Inhibition of CYP isozymes in human liver microsomes, CYP2C9
Chain of CYP2C9 (P11712 whole entry): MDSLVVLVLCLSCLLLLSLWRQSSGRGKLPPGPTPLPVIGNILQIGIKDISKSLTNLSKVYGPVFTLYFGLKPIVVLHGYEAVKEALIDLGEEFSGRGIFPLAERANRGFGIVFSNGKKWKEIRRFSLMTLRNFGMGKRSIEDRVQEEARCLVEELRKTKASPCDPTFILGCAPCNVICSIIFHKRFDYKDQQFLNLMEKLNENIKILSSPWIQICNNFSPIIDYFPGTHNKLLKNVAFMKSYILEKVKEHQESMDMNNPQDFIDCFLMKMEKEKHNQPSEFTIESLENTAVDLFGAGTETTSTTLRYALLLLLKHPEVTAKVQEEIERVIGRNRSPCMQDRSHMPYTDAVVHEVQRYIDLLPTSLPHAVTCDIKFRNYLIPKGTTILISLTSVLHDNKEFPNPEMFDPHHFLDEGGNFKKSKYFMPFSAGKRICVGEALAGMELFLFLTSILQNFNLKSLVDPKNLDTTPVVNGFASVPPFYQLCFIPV

[22] = target: CYP2D6 (Homo sapiens (Human), UniProt P10635); experiment: Inhibition of CYP isozymes in human liver microsomes, CYP2D6
Chain of CYP2D6 (P10635 whole entry): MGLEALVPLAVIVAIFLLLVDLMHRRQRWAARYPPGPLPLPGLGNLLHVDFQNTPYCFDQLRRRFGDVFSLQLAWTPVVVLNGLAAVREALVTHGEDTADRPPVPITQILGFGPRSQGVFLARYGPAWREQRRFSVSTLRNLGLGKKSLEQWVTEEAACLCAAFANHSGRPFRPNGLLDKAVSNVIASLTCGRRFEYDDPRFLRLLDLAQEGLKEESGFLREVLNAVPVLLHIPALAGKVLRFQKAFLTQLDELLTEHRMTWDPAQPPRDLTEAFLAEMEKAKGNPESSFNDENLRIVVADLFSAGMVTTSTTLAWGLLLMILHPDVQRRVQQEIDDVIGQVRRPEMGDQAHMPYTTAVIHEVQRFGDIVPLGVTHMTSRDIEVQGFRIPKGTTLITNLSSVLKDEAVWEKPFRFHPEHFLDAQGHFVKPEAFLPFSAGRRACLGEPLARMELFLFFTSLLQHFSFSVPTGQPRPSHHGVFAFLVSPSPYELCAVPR

[23] = target: Aurora-A (Homo sapiens (Human), UniProt O14965); conditions: read-out: Aurora-A IC50; biochemical assay
Chain of Aurora-A (O14965 whole entry): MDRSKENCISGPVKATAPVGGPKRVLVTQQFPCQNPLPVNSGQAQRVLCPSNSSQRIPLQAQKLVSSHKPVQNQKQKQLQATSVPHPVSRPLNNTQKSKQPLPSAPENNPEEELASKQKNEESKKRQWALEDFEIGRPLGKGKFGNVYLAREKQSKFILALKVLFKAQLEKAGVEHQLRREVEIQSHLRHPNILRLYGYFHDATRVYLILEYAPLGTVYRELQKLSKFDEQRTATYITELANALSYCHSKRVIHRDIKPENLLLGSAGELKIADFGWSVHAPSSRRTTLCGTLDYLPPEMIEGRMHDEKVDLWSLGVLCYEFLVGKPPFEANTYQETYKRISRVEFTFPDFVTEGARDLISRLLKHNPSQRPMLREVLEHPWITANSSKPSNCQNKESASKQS
Protocol: Aurora kinase assays: Aurora kinase IC50 values were determined as previously described.^26, 36

[24] = target: CYP1A2 (Homo sapiens (Human), UniProt P05177); experiment: Inhibition of CYP isozymes in human liver microsomes, CYP1A2
Chain of CYP1A2 (P05177 whole entry): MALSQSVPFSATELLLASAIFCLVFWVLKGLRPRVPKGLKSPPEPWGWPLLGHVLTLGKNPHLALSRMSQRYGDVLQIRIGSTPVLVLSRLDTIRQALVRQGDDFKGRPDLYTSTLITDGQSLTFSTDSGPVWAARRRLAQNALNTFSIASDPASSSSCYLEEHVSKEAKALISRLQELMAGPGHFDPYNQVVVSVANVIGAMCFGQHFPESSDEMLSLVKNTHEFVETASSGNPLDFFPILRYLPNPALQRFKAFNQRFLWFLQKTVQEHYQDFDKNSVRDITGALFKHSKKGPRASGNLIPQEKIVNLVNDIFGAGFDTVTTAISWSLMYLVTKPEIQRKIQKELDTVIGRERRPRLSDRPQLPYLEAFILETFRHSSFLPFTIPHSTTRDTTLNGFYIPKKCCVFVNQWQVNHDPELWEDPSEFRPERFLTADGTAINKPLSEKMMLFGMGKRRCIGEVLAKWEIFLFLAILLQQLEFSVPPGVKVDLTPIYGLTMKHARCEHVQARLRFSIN

In the case of Cc1nc(CN2CCN(c3c(Cl)cnc4[nH]c(-c5cn(C)nc5C)nc34)CC2)no1 [Example 3, 3-((4-(6-Chloro-2-(1,3-dimethyl-1H-pyrazol-4-yl)-3H-imidazo[4,5-b]pyridin-7-yl)piperazin-1-yl)methyl)-5-methyl-1,2,4-oxadiazole], the IC50 [1] is reported as > 50 µM, the IC50 [2] is reported as > 50 µM and the “HLM: Percentage of parent compound metabolised” value (“HLM: Percentage” for short) [3] is reported as 20%. For the same compound, the IC50 [4] was > 50 µM, the “MLM: Percentage of parent compound metabolised” value (from here on “MLM: Percentage”) [5] was 58% and the IC50 [6] was 9.5 µM.

For Cc1nn(C)cc1-c1nc2c(N3CCN(Cc4ccc(Cl)cc4)CC3)c(Cl)cnc2[nH]1 [Example 1, 6-Chloro-7-(4-(4-chlorobenzyl)piperazin-1-yl)-2-(1,3-dimethyl-1H-pyrazol-4-yl)-3H-imidazo[4,5-b]pyridine], the “competition for FLT3 kinase” value [7] was “greater than 94%”, the “competition for FLT3-ITD” value [8] was “greater than 94%” and the IC50 [1] was > 50 µM. For the same compound, the “competition for FLT3(D835Y)” value [9] was “greater than 94%”, the “hits from the 386 non-mutant kinases tested” value [10] was 22 and the “histone H-3 phosphorylation” value [11] was “clear inhibition”. For the same compound, the IC50 [2] was > 50 µM, the “HLM: Percentage” value [3] was 10% and the “MLM: Percentage” value [5] was 34%. For the same compound, the GI50 [12] was 0.3 µM, the IC50 [13] was > 25 µM and the “day single mice were culled (mean tumour volume increased by over 500%)” value ([14]; 50 mg/kg) was 28 days and 31 days. For the same compound, the “tumour volume, % of the initial volume after 11 days” value ([14]; 50 mg/kg dosing schedule) was 42%, the “day single mice were culled (mean tumour volume increased by over 500%)” value ([14]; 100 mg/kg) was 46 days and 56 days and the “tumours when therapy was discontinued after 11 days” value ([14]; 100 mg/kg dosing schedule) was “undetectable”. The “toxicity as defined by body weight loss” value ([14]; athymic mice, oral 50 and 100 mg/kg) was “no observed toxicity”, the “growth of MV4-11 human tumour xenografts” value ([14]; athymic mice, oral 50 and 100 mg/kg, dose dependent) was “strongly inhibited the growth” and the “mice that failed to develop progressively growing tumours” value ([14]; each treatment group (50 and 100 mg/kg), study terminated on day 60) was 60%. The STAT5 phosphorylation [15] was “inhibition of STAT5 phosphorylation”, the Vd ([16]; female, Balb/C, plasma, 5 mg/kg) was 0.066 L and ~3.3 L/kg and the clearance ([16]; female, Balb/C, plasma, iv, 5 mg/kg) was 0.967 mL/min. The “AUCinf, (iv)” value ([16]; iv 5 mg/kg) was 3.753 µM·h, the “Cl, (iv)” value ([16]; iv 5 mg/kg) was 0.058 L/h and the “t½, (iv)” value ([16]; iv 5 mg/kg) was 50.4 min. For the same compound, the “F % (po)” value ([16]; oral 5 mg/kg) was 100%, the LogD7.4 [17] was “^cLogD7.4 = 3.84 (experimentally determined value)” and the remaining binding at 1 µM [18] was 1%. The “competition for FLT3(D835H)” value [19] was “greater than 94%”.

With Cc1nn(C)cc1-c1nc2c(N3CCN(Cc4ncon4)CC3)c(Cl)cnc2[nH]1 [Example 2, 3-((4-(6-Chloro-2-(1,3-dimethyl-1H-pyrazol-4-yl)-3H-imidazo[4,5-b]pyridin-7-yl)piperazin-1-yl)methyl)-1,2,4-oxadiazole] the IC50 [2] was > 50 µM, the “HLM: Percentage” value [3] was 22% and the “MLM: Percentage” value [5] was 67%.

In the case of Cc1cc(CN2CCN(c3c(Br)cnc4nc(-c5ccc(N6CCN(C)CC6)cc5)[nH]c34)CC2)no1 [CCT137690, reference compound], the “HLM: Percentage” value [3] is given as 86% and the “growth of a SW620 human colon carcinoma xenograft in vivo” value [20] is given as “inhibits the growth”.

In the case of Cn1cc(-c2nc3c(N4CCN(Cc5cccnc5)CC4)c(Br)cnc3[nH]2)cn1 [Comparator 1, 6-bromo-2-(1-methyl-1H-pyrazol-4-yl)-7-(4-(pyridine-3-ylmethyl)piperazin-1-yl)-3H-imidazo[4,5-b]pyridine], the IC50 [21] is reported as 10 to 50 µM, the IC50 [1] is reported as > 50 µM and the IC50 [22] is reported as 1 to 10 µM. The IC50 [2] was < 1 µM, the IC50 [4] was 10 to 50 µM and the IC50 [23] was 0.032 µM. It also gave an IC50 [13] of 5.5 µM and an IC50 [24] of 10 to 50 µM.

For Cc1nn(C)c(C)c1-c1nc2c(N3CCN(Cc4cccnc4)CC3)c(Br)cnc2[nH]1 [Comparator 2, 6-bromo-7-(4-(pyridine-3-ylmethyl)piperazin-1-yl)-2-(1,3,5-trimethyl-1H-pyrazol-4-yl)-3H-imidazo[4,5-b]pyridine], the IC50 [21] was 10 to 50 µM, the IC50 [1] was > 50 µM and the IC50 [22] was 10 to 50 µM. For the same compound, the IC50 [2] was < 1 µM, the IC50 [4] was 10 to 50 µM and the IC50 [23] was 0.3 µM. For the same compound, the IC50 [13] was 10.8 µM.
